From PubChem BioAssay (NCI)
Several values for one entry are separate records, joined by “and”; a condition that tells them apart may be missing. Equal values may be shown once.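 Exposure lasted 48 hours, with cells grown in 96-well plates and compounds tested at five concentrations. GI50 = concentration required for 50% inhibition of growth. At the TGI there is no net growth.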

Assays:
Experiment in all cases: inhibition of tumour cell growth, NCI panel, 48 h
[1] = tested on: SK-MEL-2 melanoma
[2] = tested on: XF 498 CNS
[3] = tested on: OVCAR-8 ovarian
[4] = tested on: SF-295 CNS
[5] = tested on: COLO 205 colon
[6] = tested on: DU-145 prostate
[7] = tested on: K-562 leukemia
[8] = tested on: MDA-N
[9] = tested on: M14 melanoma
[10] = tested on: RPMI-8226 leukemia
[11] = tested on: NCI-H460 lung
[12] = tested on: SK-MEL-28 melanoma
[13] = tested on: HS 578T breast
[14] = tested on: HT29 colon
[15] = tested on: DMS 114 small cell lung
[16] = tested on: 786-0 renal
[17] = tested on: SNB-19 CNS
[18] = tested on: LOX IMVI melanoma
[19] = tested on: RXF 393 renal
[20] = tested on: M19-MEL melanoma
[21] = tested on: HCT-15 colon
[22] = tested on: HOP-92 NSCLC
[23] = tested on: IGROV1 ovarian
[24] = tested on: HL-60(TB) leukemia
[25] = tested on: T-47D breast
[26] = tested on: SK-OV-3 ovarian
[27] = tested on: HCC-2998 colon
[28] = tested on: DMS 273 small cell lung
[29] = tested on: MCF7 breast
[30] = tested on: SN12C renal
[31] = tested on: TK-10 renal
[32] = tested on: OVCAR-4 ovarian
[33] = tested on: DLD-1 colon
[34] = tested on: CCRF-CEM leukemia
[35] = tested on: ACHN renal
[36] = tested on: HOP-18 NSCLC
[37] = tested on: SF-539 CNS
[38] = tested on: SNB-75 CNS
[39] = tested on: HOP-62 NSCLC
[40] = tested on: UACC-257 melanoma
[41] = tested on: NCI-H226 lung
[42] = tested on: MOLT-4 leukemia
[43] = tested on: SK-MEL-5 melanoma
[44] = tested on: NCI-H23 lung
[45] = tested on: EKVX NSCLC
[46] = tested on: SR leukemia
[47] = tested on: A498 renal
[48] = tested on: A549 NSCLC
[49] = tested on: NCI-H522 lung
[50] = tested on: U251 CNS
[51] = tested on: SF-268 CNS
[52] = tested on: HCT-116 colon
[53] = tested on: OVCAR-5 ovarian
[54] = tested on: MDA-MB-435
[55] = tested on: OVCAR-3 ovarian
[56] = tested on: UO-31 renal
[57] = tested on: CAKI-1 renal
[58] = tested on: UACC-62 melanoma
[59] = tested on: SW-620 colon
[60] = tested on: KM20L2 colon
[61] = tested on: MDA-MB-231 breast
[62] = tested on: MALME-3M melanoma
[63] = tested on: BT-549 breast
[64] = tested on: PC-3 prostate
[65] = tested on: SNB-78 CNS
[66] = tested on: KM12 colon
[67] = tested on: LXFL 529 NSCLC
[68] = tested on: NCI/ADR-RES ovarian
[69] = tested on: RXF-631 renal

O=[N+]([O-])c1cccc2nc3ccccc3c(NCCO)c12
GI50 [1]: 0.338 nM | TGI [1]: 0.857 nM | TGI [2]: 4.37 nM | GI50 [3]: 1.21 nM | TGI [3]: 19.2 nM | GI50 [4]: 0.952 nM | TGI [4]: 13.7 nM | GI50 [5]: 0.181 nM | TGI [5]: 6.4 nM and 0.73 nM | GI50 [6]: 0.0482 nM | TGI [6]: 1.95 nM | GI50 [7]: 1.26 nM | GI50 [8]: 0.0322 nM | TGI [9]: 0.799 nM | GI50 [10]: 0.0396 nM | GI50 [11]: 0.0272 nM | GI50 [12]: 0.707 nM | GI50 [13]: 0.298 nM | TGI [13]: 0.802 nM | GI50 [14]: 1.82 nM | TGI [14]: 6.86 nM and 3.46 nM | TGI [15]: 14.2 nM | GI50 [16]: 0.265 nM | TGI [16]: 2.1 nM | GI50 [17]: 1.2 nM | TGI [17]: 87.8 nM | TGI [18]: 11.9 nM and 16.9 nM | GI50 [19]: 0.14 nM | TGI [19]: 3.95 nM and 0.815 nM | TGI [20]: 8.48 nM | GI50 [21]: 0.293 nM | TGI [21]: 4.25 nM | GI50 [22]: 1.22 nM | TGI [22]: 4.61 nM and 5.48 nM | GI50 [23]: 11.8 nM | TGI [23]: 13.9 nM and 72.4 nM | GI50 [24]: 1.18 nM | TGI [24]: > 100 nM | TGI [25]: 4.8 nM | GI50 [26]: 4.69 nM | GI50 [27]: 1.46 nM | TGI [27]: 3.67 nM and 3.38 nM | TGI [28]: 48.1 nM | GI50 [29]: 0.113 nM | TGI [29]: 0.471 nM | GI50 [30]: 0.299 nM | TGI [30]: 2.32 nM | GI50 [31]: 0.594 nM | TGI [31]: 9.35 nM and 2.74 nM | TGI [32]: 2.93 nM and 26.7 nM | TGI [33]: 3.08 nM | GI50 [34]: 3.79 nM | TGI [34]: > 100 nM | GI50 [35]: 0.189 nM | TGI [35]: 4.05 nM and 2.47 nM | TGI [36]: > 100 nM | GI50 [37]: 0.647 nM | TGI [37]: 2.14 nM | TGI [38]: 5.01 nM | TGI [39]: 2.05 nM | GI50 [40]: 0.999 nM | TGI [40]: 3.84 nM | GI50 [41]: 3.22 nM | TGI [41]: 9.82 nM and 19.8 nM | GI50 [42]: 1.34 nM | TGI [42]: > 100 nM | GI50 [43]: 0.279 nM | TGI [43]: 1.12 nM | GI50 [44]: 0.464 nM | TGI [44]: 5.23 nM and 1.92 nM | GI50 [45]: 5.47 nM | TGI [45]: 3.73 nM | GI50 [46]: 1.39 nM | TGI [46]: 7.31 nM | GI50 [47]: 9.34 nM | TGI [47]: 36.7 nM | GI50 [48]: 0.154 nM | TGI [48]: 1.46 nM | GI50 [49]: 0.527 nM | TGI [49]: 1.52 nM | GI50 [50]: 0.4 nM | TGI [50]: 5.18 nM | GI50 [51]: 0.25 nM | TGI [51]: 3.77 nM and 10.7 nM | GI50 [52]: 0.0418 nM | TGI [52]: 0.47 nM | GI50 [53]: 0.703 nM | TGI [53]: 9.29 nM and 3.07 nM | GI50 [54]: 0.0714 nM | GI50 [55]: 2.87 nM | TGI [55]: 1.78 nM | GI50 [56]: 0.336 nM | TGI [56]: 5.76 nM and 1.73 nM | GI50 [57]: 0.484 nM | TGI [57]: 2.93 nM | GI50 [58]: 0.705 nM | GI50 [59]: 0.0593 nM | TGI [59]: 1.4 nM | TGI [60]: 3.57 nM | GI50 [61]: 0.118 nM | GI50 [62]: 0.525 nM | TGI [62]: 1.7 nM | GI50 [63]: 0.108 nM | TGI [63]: 0.295 nM | GI50 [64]: 0.136 nM | TGI [64]: 0.414 nM | TGI [65]: 50.4 nM and 12 nM | GI50 [66]: 1.1 nM | TGI [66]: 12.9 nM | TGI [67]: 15.7 nM

CC1OC(=O)C2CC3CCCCC3C(/C=C/C3CCCC(C)N3C)C12 (stereo unspecified)
TGI [1]: > 100000 nM | TGI [2]: > 100000 nM | TGI [3]: > 100000 nM | TGI [4]: > 68100 nM | TGI [5]: > 100000 nM | TGI [6]: > 100000 nM | TGI [7]: > 100000 nM | TGI [8]: > 100000 nM | TGI [9]: > 100000 nM | TGI [10]: > 100000 nM | TGI [11]: > 100000 nM | TGI [12]: > 100000 nM | TGI [13]: > 100000 nM | TGI [14]: > 100000 nM | TGI [15]: > 100000 nM | TGI [16]: > 100000 nM | TGI [17]: > 100000 nM | TGI [18]: > 100000 nM | TGI [19]: > 100000 nM | TGI [20]: > 100000 nM | TGI [21]: > 100000 nM | TGI [22]: > 100000 nM | TGI [23]: > 100000 nM | TGI [24]: > 100000 nM | TGI [25]: > 100000 nM | TGI [26]: > 100000 nM | TGI [27]: > 100000 nM | TGI [28]: > 100000 nM | TGI [29]: > 100000 nM | TGI [30]: > 100000 nM | TGI [31]: > 100000 nM | TGI [32]: > 100000 nM | TGI [33]: > 100000 nM | TGI [34]: > 100000 nM | TGI [35]: > 100000 nM | TGI [36]: > 100000 nM | TGI [68]: > 100000 nM | TGI [37]: > 100000 nM | TGI [38]: > 100000 nM | TGI [39]: > 100000 nM | TGI [40]: > 100000 nM | TGI [41]: > 100000 nM | TGI [42]: > 100000 nM | TGI [43]: > 100000 nM | TGI [44]: > 100000 nM | TGI [45]: > 100000 nM | TGI [46]: > 100000 nM | TGI [47]: > 100000 nM | TGI [48]: > 100000 nM | TGI [49]: > 100000 nM | TGI [50]: > 100000 nM | TGI [51]: > 100000 nM | TGI [52]: > 100000 nM | TGI [53]: > 100000 nM | TGI [54]: > 100000 nM | TGI [55]: > 100000 nM | TGI [56]: > 100000 nM | TGI [57]: > 100000 nM | TGI [58]: > 100000 nM | TGI [59]: > 100000 nM | TGI [60]: > 100000 nM | TGI [61]: > 100000 nM | TGI [62]: > 100000 nM | TGI [63]: > 100000 nM | TGI [64]: > 100000 nM | TGI [65]: > 52800 nM | TGI [66]: > 100000 nM | TGI [67]: > 100000 nM

O=C(CC1(O)C(=O)Nc2ccc([N+](=O)[O-])cc21)c1ccc2ccccc2c1 (stereo unspecified)
TGI [1]: > 100000 nM | TGI [3]: > 100000 nM | TGI [4]: > 100000 nM | TGI [5]: > 100000 nM | TGI [7]: > 100000 nM | TGI [9]: > 100000 nM | TGI [10]: > 100000 nM | TGI [11]: > 100000 nM | TGI [12]: > 100000 nM | TGI [14]: > 100000 nM | TGI [15]: > 100000 nM | TGI [16]: > 100000 nM | TGI [17]: > 100000 nM | TGI [19]: > 100000 nM | TGI [20]: > 100000 nM | TGI [21]: > 100000 nM | TGI [23]: > 100000 nM | TGI [24]: > 100000 nM | TGI [26]: > 100000 nM | TGI [27]: > 100000 nM | TGI [28]: > 100000 nM | TGI [30]: > 100000 nM | TGI [31]: > 100000 nM | TGI [32]: > 100000 nM | TGI [33]: > 100000 nM | TGI [34]: > 100000 nM | TGI [35]: > 100000 nM | TGI [37]: > 100000 nM | TGI [38]: > 100000 nM | TGI [39]: > 100000 nM | TGI [40]: > 100000 nM | TGI [41]: > 100000 nM | TGI [42]: > 100000 nM | TGI [44]: > 100000 nM | TGI [45]: > 100000 nM | TGI [46]: > 100000 nM | TGI [47]: > 100000 nM | TGI [48]: > 100000 nM | TGI [49]: > 100000 nM | TGI [50]: > 100000 nM | TGI [51]: > 100000 nM | TGI [69]: > 100000 nM | TGI [52]: > 100000 nM | TGI [53]: > 100000 nM | TGI [55]: > 100000 nM | TGI [56]: > 100000 nM | TGI [58]: > 100000 nM | TGI [59]: > 100000 nM | TGI [60]: > 100000 nM | TGI [62]: > 100000 nM | TGI [65]: > 100000 nM | TGI [66]: > 100000 nM | TGI [67]: > 100000 nM
